Target: human activated kallikrein enzyme (plasma kallikrein) (Homo sapiens (Human), UniProt P03952)
Assay: Inhibition of human activated plasma kallikrein, fluorogenic peptide substrate assay, 500 pM enzyme format
Format: biochemical
Conditions: 500 pM activated kallikrein enzyme, 300 uM Pro-Phe-Arg-7-amido-4-methylcoumarin substrate, 30 min preincubation, 10 min at RT; read-out: Primary Dose Response Assay: Average EC50
In short: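 Buffer 20 mM Tris pH 7.5, EDTA, NaCl, PEG-400, Triton X-100; 300 uM Pro-Phe-Arg-AMC; enzyme–inhibitor preincubation 30 min RT. Format one: 500 pM kallikrein, 10 min RT reaction; format two: 5 pM kallikrein, 18 h RT reaction. Fluorescence read at 460 nm (380 nm excitation).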

human activated kallikrein enzyme (plasma kallikrein), sequence (P03952 391-638): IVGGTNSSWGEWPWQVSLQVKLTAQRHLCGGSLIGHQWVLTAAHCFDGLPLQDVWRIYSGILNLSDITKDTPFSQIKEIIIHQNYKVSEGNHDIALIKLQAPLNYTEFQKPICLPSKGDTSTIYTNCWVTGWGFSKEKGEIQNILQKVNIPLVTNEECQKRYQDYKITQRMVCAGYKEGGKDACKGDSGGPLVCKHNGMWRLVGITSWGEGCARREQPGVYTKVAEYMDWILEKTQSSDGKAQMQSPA
human activated kallikrein enzyme (plasma kallikrein), sequence (P03952 20-390 partner): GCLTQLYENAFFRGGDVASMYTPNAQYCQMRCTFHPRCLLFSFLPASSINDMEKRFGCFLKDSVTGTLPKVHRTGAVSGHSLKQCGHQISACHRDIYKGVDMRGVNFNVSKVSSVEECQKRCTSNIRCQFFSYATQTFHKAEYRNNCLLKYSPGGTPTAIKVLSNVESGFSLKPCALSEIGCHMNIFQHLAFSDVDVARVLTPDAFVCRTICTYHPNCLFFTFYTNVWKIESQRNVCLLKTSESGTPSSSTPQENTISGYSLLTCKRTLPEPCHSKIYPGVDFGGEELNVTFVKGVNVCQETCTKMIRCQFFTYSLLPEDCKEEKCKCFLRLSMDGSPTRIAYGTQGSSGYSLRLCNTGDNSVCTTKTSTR

EC50 [nM]	SMILES
< 1	O=C(NCc1ncn2ccc(Cl)c(F)c12)c1cn(Cc2cn3cc(C4CC4)cc(N4CCCC4=O)c3n2)nn1 [Example I-203, N-((7-chloro-8-fluoroimidazo[1,5-a]pyridin-1-yl)methyl)-1-((6-cyclopropyl-8-(2-oxopyrrolidin-1-yl)imidazo[1,2-a]pyridin-2-yl)methyl)-1H-1,2,3-triazole-4-carboxamide]
< 1	O=C(NCc1ncn2ccc(Cl)c(F)c12)c1cn(Cc2cn3cc(C4CC4)cc(Br)c3n2)nn1 [Example I-204, 1-((8-bromo-6-cyclopropylimidazo[1,2-a]pyridin-2-yl)methyl)-N-((7-chloro-8-fluoroimidazo[1,5-a]pyridin-1-yl)methyl)-1H-1,2,3-triazole-4-carboxamide]
< 1	CCOC(=O)C(C)(C)Cc1cc(C2CC2)cn2cc(Cn3cc(C(=O)NCc4ncn5ccc(Cl)c(F)c45)nn3)nc12 [Example I-205, ethyl 3-(2-((4-(((7-chloro-8-fluoroimidazo[1,5-a]pyridin-1-yl)methyl)carbamoyl)-1H-1,2,3-triazol-1-yl)methyl)-6-cyclopropylimidazo[1,2-a]pyridin-8-yl)-2,2-dimethylpropanoate]
< 1	CC(C)(Cc1cc(C2CC2)cn2cc(Cn3cc(C(=O)NCc4ncn5ccc(Cl)c(F)c45)nn3)nc12)C(=O)O [Example I-206, 3-(2-((4-(((7-chloro-8-fluoroimidazo[1,5-a]pyridin-1-yl)methyl)carbamoyl)-1H-1,2,3-triazol-1-yl)methyl)-6-cyclopropylimidazo[1,2-a]pyridin-8-yl)-2,2-dimethylpropanoic acid]
< 1	CCOC(=O)COc1cc(C2CC2)cn2cc(Cn3cc(C(=O)NCc4ncn5ccc(Cl)c(F)c45)nn3)nc12 [Example I-207, ethyl 2-((2-((4-(((7-chloro-8-fluoroimidazo[1,5-a]pyridin-1-yl)methyl)carbamoyl)-1H-1,2,3-triazol-1-yl)methyl)-6-cyclopropylimidazo[1,2-a]pyridin-8-yl)oxy)acetate]
< 1	O=C(O)COc1cc(C2CC2)cn2cc(Cn3cc(C(=O)NCc4ncn5ccc(Cl)c(F)c45)nn3)nc12 [Example I-208, 2-((2-((4-(((7-chloro-8-fluoroimidazo[1,5-a]pyridin-1-yl)methyl)carbamoyl)-1H-1,2,3-triazol-1-yl)methyl)-6-cyclopropylimidazo[1,2-a]pyridin-8-yl)oxy)acetic acid]
1 to 10	O=C(NCc1ncn2ccc(Cl)c(F)c12)c1cn(Cc2cc3ncc(C4CC4)cn3n2)nn1 [Example I-209, N-((7-chloro-8-fluoroimidazo[1,5-a]pyridin-1-yl)methyl)-1-((6-cyclopropylpyrazolo[1,5-a]pyrimidin-2-yl)methyl)-1H-1,2,3-triazole-4-carboxamide]
< 1	CCOC(=O)c1nnc(Cc2cc(C3CC3)cn3cc(Cn4cc(C(=O)NCc5ncn6ccc(Cl)c(F)c56)nn4)nc23)o1 [Example I-210a, ethyl 5-((2-((4-(((7-chloro-8-fluoroimidazo[1,5-a]pyridin-1-yl)methyl)carbamoyl)-1H-1,2,3-triazol-1-yl)methyl)-6-cyclopropylimidazo[1,2-a]pyridin-8-yl)methyl)-1,3,4-oxadiazole-2-carboxylate]
< 1	O=C(NCc1ncn2ccc(Cl)c(F)c12)c1cn(Cc2cn3cc(C4CC4)cc(Cc4nnco4)c3n2)nn1 [Example I-210b, 1-((8-((1,3,4-oxadiazol-2-yl)methyl)-6-cyclopropylimidazo[1,2-a]pyridin-2-yl)methyl)-N-((7-chloro-8-fluoroimidazo[1,5-a]pyridin-1-yl)methyl)-1H-1,2,3-triazole-4-carboxamide]
10 to 100	O=C(NCc1ncn2ccc(Cl)c(F)c12)c1cn(Cc2[nH]c3ccc(C4CC4)cc3c2C(F)(F)F)nn1 [Example I-211, N-((7-chloro-8-fluoroimidazo[1,5-a]pyridin-1-yl)methyl)-1-((5-cyclopropyl-3-(trifluoromethyl)-1H-indol-2-yl)methyl)-1H-1,2,3-triazole-4-carboxamide]
< 1	CC(C)(Oc1cc(C2CC2)cn2cc(Cn3cc(C(=O)NCc4ncn5ccc(Cl)c(F)c45)nn3)nc12)C(=O)O [Example I-212, 2-((2-((4-(((7-chloro-8-fluoroimidazo[1,5-a]pyridin-1-yl)methyl)carbamoyl)-1H-1,2,3-triazol-1-yl)methyl)-6-cyclopropylimidazo[1,2-a]pyridin-8-yl)oxy)-2-methylpropanoic acid]
< 1	CC(F)c1cc(C2CC2)cn2cc(Cn3cc(C(=O)NCc4ncn5ccc(Cl)c(F)c45)nn3)nc12 (stereo not drawn) [Example I-213, N-((7-chloro-8-fluoroimidazo[1,5-a]pyridin-1-yl)methyl)-1-((6-cyclopropyl-8-(1-fluoroethyl)imidazo[1,2-a]pyridin-2-yl)methyl)-1H-1,2,3-triazole-4-carboxamide]
< 1	O=C(NCc1ncn2ccc(Cl)c(F)c12)c1cnn(Cc2cn3cc(C4CC4)cc(Cc4nnco4)c3n2)c1 [Example I-214, 1-((8-((1,3,4-oxadiazol-2-yl)methyl)-6-cyclopropylimidazo[1,2-a]pyridin-2-yl)methyl)-N-((7-chloro-8-fluoroimidazo[1,5-a]pyridin-1-yl)methyl)-1H-pyrazole-4-carboxamide]
< 1	O=C(NCc1ncn2ccc(Cl)c(F)c12)c1cnn(Cc2cn3cc(C4CC4)cc(C4COC4)c3n2)c1 [Example I-215, N-((7-chloro-8-fluoroimidazo[1,5-a]pyridin-1-yl)methyl)-1-((6-cyclopropyl-8-(oxetan-3-yl)imidazo[1,2-a]pyridin-2-yl)methyl)-1H-pyrazole-4-carboxamide]
< 1	O=C(NCc1ncn2ccc(Cl)c(F)c12)c1cn(Cc2cn3cc(C4CC4)cc(N4CCOC4=O)c3n2)nn1 [Example I-216, N-((7-chloro-8-fluoroimidazo[1,5-a]pyridin-1-yl)methyl)-1-((6-cyclopropyl-8-(2-oxooxazolidin-3-yl)imidazo[1,2-a]pyridin-2-yl)methyl)-1H-1,2,3-triazole-4-carboxamide]
1 to 10	O=C(NCc1ncn2ccc(Cl)c(F)c12)c1cn(Cc2cn3ncc(C4CC4)cc3n2)nn1 [Example I-217, N-((7-chloro-8-fluoroimidazo[1,5-a]pyridin-1-yl)methyl)-1-((7-cyclopropylimidazo[1,2-b]pyridazin-2-yl)methyl)-1H-1,2,3-triazole-4-carboxamide]
< 1	O=C(NCc1ncn2ccc(Cl)c(F)c12)c1cn(Cc2cn3cc(C4CC4)cc(-n4cccn4)c3n2)nn1 [Example I-220, N-((7-chloro-8-fluoroimidazo[1,5-a]pyridin-1-yl)methyl)-1-((6-cyclopropyl-8-(1H-pyrazol-1-yl)imidazo[1,2-a]pyridin-2-yl)methyl)-1H-1,2,3-triazole-4-carboxamide]
< 1	COC(=O)C1(Cc2cc(C3CC3)cn3cc(Cn4cc(C(=O)NCc5ncn6ccc(Cl)c(F)c56)nn4)nc23)CCCC1 [Example I-221a, methyl 1-((2-((4-(((7-chloro-8-fluoroimidazo[1,5-a]pyridin-1-yl)methyl)carbamoyl)-1H-1,2,3-triazol-1-yl)methyl)-6-cyclopropylimidazo[1,2-a]pyridin-8-yl)methyl)cyclopentane-1-carboxylate]

Reference: patent US10730874B2 (Shire Human Genetic Therapies, Inc., priority 2018, dated 2020)
